According to publication PMC4483627 (Marine Drugs, 2015):
Where “and” joins values, the source holds several entries; their conditions need not be identical. Equal values may be shown once. Positions of bridges follow the written chain, without caps; N, C: chain ends. Residues, ends and D or L forms follow the SMILES beside them.

Assays:
Test in all cases: cell-based
rat nAChR α9α10 = target: T1, rat nAChR α9α10 (Rattus norvegicus, UniProt P43144+Q9JLB5)
T1 construct: expressed in transfected cells; host or cells: Xenopus oocytes injected with cRNA

rat nAChR α2β4 = target: T2, rat nAChR α2β4 (Rattus norvegicus, UniProt P12389+P12392); details: for IC50: IC50 α2β4
T2 construct: expressed in transfected cells; host or cells: Xenopus oocytes injected with cRNA

rat nAChR α3β2 [1] = target: T3, rat nAChR α3β2 (Rattus norvegicus, UniProt P04757+P12390); type: cell-based
T3 construct: expressed in transfected cells; host or cells: Xenopus oocytes injected with cRNA

rat nAChR α7 = target: T4, rat nAChR α7 (Rattus norvegicus, UniProt Q05941)
T4 construct: expressed in transfected cells; host or cells: Xenopus oocytes injected with cRNA

rat nAChR α3β4 = target: T5, rat nAChR α3β4 (Rattus norvegicus, UniProt P04757+P12392)
T5 construct: expressed in transfected cells; host or cells: Xenopus oocytes injected with cRNA

rat nAChR α3β2 [2] = target: T3, rat nAChR α3β2; type: cell-based; remark: listed apart in the source

T2 sequence (P12389 28-511 limits assumed): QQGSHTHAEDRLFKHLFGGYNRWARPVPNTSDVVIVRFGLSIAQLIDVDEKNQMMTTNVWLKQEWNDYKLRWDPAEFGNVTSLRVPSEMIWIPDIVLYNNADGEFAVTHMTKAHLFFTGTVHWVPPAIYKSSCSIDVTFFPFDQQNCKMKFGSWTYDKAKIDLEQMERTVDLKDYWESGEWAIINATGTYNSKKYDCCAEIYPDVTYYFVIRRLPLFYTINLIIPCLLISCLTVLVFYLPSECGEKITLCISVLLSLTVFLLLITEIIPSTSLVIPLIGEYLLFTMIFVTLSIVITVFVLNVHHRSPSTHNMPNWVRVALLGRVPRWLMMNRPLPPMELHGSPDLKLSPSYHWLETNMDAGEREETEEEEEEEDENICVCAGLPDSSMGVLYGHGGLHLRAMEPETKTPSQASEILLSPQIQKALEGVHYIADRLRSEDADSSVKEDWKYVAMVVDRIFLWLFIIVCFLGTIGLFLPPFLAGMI
T2 sequence (P12392 21-495 limits assumed): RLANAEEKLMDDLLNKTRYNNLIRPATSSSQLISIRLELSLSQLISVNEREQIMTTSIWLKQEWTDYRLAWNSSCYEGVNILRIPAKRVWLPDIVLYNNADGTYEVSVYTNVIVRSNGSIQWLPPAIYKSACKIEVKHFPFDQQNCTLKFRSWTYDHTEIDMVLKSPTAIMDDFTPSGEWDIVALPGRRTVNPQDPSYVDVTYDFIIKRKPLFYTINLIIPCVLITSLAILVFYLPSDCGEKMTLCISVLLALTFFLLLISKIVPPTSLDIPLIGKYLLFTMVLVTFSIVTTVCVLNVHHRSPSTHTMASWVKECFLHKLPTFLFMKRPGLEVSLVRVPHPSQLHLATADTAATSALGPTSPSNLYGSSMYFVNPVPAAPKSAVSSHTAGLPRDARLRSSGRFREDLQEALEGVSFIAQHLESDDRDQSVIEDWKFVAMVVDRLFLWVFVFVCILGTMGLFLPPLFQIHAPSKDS
T4 sequence (Q05941 23-502 limits assumed): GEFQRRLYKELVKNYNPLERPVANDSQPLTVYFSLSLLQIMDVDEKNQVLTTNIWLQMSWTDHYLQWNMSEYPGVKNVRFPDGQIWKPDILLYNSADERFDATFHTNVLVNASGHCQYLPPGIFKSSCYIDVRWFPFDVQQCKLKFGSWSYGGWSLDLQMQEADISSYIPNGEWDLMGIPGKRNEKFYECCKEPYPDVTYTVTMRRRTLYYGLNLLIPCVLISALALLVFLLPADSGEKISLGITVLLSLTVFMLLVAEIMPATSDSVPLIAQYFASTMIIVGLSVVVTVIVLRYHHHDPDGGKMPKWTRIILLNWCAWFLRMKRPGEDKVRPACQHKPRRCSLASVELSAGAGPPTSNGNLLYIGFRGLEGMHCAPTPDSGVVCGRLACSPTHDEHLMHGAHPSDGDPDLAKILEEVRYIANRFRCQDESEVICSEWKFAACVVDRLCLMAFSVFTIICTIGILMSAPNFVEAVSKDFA
T1 sequence (P43144 26-479 limits assumed): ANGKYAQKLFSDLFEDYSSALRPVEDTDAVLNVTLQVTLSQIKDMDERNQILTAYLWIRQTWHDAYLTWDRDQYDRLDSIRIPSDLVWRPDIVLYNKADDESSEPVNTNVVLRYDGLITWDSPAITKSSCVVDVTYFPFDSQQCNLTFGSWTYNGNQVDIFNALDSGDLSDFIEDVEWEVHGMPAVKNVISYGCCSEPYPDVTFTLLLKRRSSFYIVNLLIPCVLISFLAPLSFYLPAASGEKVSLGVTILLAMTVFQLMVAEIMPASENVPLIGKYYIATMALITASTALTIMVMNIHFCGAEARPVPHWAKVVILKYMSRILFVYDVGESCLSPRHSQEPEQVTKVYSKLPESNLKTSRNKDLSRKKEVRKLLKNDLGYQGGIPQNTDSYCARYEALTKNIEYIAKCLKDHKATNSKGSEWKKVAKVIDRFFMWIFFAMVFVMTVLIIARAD
T1 sequence (Q9JLB5 25-447 limits assumed): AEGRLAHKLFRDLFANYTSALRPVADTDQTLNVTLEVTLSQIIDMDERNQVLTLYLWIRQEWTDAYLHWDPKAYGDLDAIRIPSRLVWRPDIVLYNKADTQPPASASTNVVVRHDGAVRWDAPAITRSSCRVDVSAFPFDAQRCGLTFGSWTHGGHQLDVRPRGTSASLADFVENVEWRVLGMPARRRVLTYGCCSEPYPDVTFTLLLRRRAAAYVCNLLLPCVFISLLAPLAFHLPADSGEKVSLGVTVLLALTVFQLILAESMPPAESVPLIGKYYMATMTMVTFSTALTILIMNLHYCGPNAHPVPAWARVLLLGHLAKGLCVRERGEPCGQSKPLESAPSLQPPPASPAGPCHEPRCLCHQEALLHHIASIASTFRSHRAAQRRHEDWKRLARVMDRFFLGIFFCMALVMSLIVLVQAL
T3 sequence (P04757 26-499 limits assumed): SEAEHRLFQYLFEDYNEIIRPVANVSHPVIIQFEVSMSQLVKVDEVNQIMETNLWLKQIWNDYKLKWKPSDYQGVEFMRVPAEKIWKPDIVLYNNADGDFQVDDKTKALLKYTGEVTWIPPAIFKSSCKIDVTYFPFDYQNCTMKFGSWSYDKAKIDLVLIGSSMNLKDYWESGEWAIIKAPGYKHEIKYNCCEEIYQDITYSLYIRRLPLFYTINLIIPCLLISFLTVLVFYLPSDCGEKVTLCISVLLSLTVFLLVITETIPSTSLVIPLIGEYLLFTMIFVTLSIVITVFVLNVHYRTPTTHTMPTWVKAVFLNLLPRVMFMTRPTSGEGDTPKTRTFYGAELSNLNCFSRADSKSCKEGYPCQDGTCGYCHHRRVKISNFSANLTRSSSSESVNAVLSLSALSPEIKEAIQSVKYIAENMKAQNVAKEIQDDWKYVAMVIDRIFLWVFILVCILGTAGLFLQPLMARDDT
T3 sequence (P12390 25-500 limits assumed): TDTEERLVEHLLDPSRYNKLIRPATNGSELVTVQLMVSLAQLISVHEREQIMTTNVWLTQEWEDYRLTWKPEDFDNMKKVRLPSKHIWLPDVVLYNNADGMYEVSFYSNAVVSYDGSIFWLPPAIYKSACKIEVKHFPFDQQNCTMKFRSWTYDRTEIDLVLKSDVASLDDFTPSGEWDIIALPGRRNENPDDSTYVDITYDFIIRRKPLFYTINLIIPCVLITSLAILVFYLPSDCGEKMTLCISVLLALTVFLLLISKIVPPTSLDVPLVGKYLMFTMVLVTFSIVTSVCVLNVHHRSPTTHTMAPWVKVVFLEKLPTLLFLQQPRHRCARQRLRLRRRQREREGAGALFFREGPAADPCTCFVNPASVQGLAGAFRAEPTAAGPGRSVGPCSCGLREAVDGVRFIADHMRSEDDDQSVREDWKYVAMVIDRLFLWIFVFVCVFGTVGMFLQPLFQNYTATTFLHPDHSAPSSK
T5 sequence (P04757 26-499 limits assumed): as the sequence (P04757 26-499 limits assumed) above
T5 sequence (P12392 21-495 limits assumed): as the sequence (P12392 21-495 limits assumed) above

| Compound | IC50 (rat nAChR α9α10) | IC50 (rat nAChR α2β4) | IC50 (rat nAChR α7) | IC50 (rat nAChR α3β4) | kon (rat nAChR α3β2 [2]) | koff (rat nAChR α3β2 [2]; SEM) | IC50 (rat nAChR α3β2 [1]) | further results |
| --- | --- | --- | --- | --- | --- | --- | --- | --- |
| CC(C)C[C@@H]1NC(=O)[C@H](CCC(=O)O)NC(=O)[C@@H]2CCCN2C(=O)[C@H](Cc2c[nH]cn2)NC(=O)[C@H](CO)NC(=O)[C@H](C(C)C)NC(=O)[C@H](Cc2c[nH]cn2)NC(=O)[C@@H]2CSSC[C@H](NC(=O)[C@H](C)NC(=O)[C@@H]3CCCN3)C(=O)N[C@@H](CSSC[C@@H](C(N)=O)NC1=O)C(=O)N[C@@H]([C@@H](C)O)C(=O)N[C@@H](Cc1c[nH]cn1)C(=O)N1CCC[C@H]1C(=O)N[C@@H](C)C(=O)N2 [Mr1.7[E2A]] (H-PACCTHPACHVSHPELC-NH2; disulfide 3-9, 4-17) | > 10000 nM | > 10000 nM | > 10000 nM | > 10000 nM | 86300 M⁻¹ s⁻¹ | 0.0028 s⁻¹ | – | selectivity index (SI) for α3β2 (rat nAChR α3β2 [1]): > 847 |
| CC(C)C[C@@H]1NC(=O)[C@H](CCC(=O)O)NC(=O)[C@@H]2CCCN2C(=O)[C@H](Cc2c[nH]cn2)NC(=O)[C@H](CC(N)=O)NC(=O)CNC(=O)[C@H](Cc2c[nH]cn2)NC(=O)[C@@H]2CSSC[C@H](NC(=O)[C@H](CCC(=O)O)NC(=O)[C@@H]3CCCN3)C(=O)N[C@@H](CSSC[C@@H](C(N)=O)NC1=O)C(=O)N[C@@H]([C@@H](C)O)C(=O)N[C@@H](Cc1c[nH]cn1)C(=O)N1CCC[C@H]1C(=O)N[C@@H](C)C(=O)N2 [Mr1.7[V11G,S12N]] (H-PECCTHPACHGNHPELC-NH2; disulfide 3-9, 4-17) | – | – | – | – | – | – | 28.4 nM | – |
| CC(C)C[C@@H]1NC(=O)[C@H](CCC(=O)O)NC(=O)[C@@H]2CCCN2C(=O)[C@H](Cc2c[nH]cn2)NC(=O)[C@H](CO)NC(=O)[C@H](C(C)C)NC(=O)[C@H](Cc2c[nH]cn2)NC(=O)[C@@H]2CSSC[C@H](NC(=O)[C@H](CCC(=O)O)NC(=O)[C@H](C)N)C(=O)N[C@@H](CSSC[C@@H](C(N)=O)NC1=O)C(=O)N[C@@H]([C@@H](C)O)C(=O)N[C@@H](Cc1c[nH]cn1)C(=O)N1CCC[C@H]1C(=O)N[C@@H](C)C(=O)N2 [Mr1.7[P1A]] (H-AECCTHPACHVSHPELC-NH2; disulfide 3-9, 4-17) | – | – | – | – | – | – | 42 nM | – |
| CC(C)C[C@@H]1NC(=O)[C@H](CCC(=O)O)NC(=O)[C@@H]2CCCN2C(=O)[C@H](Cc2c[nH]cn2)NC(=O)[C@H](CC(N)=O)NC(=O)[C@H](C(C)C)NC(=O)[C@H](Cc2c[nH]cn2)NC(=O)[C@@H]2CSSC[C@H](NC(=O)[C@H](CCC(=O)O)NC(=O)[C@@H]3CCCN3)C(=O)N[C@@H](CSSC[C@@H](C(N)=O)NC1=O)C(=O)N[C@@H]([C@@H](C)O)C(=O)N[C@@H](Cc1c[nH]cn1)C(=O)N1CCC[C@H]1C(=O)N[C@@H](C)C(=O)N2 [Mr1.7[S12N]] (H-PECCTHPACHVNHPELC-NH2; disulfide 3-9, 4-17) | > 10000 nM | 370 nM and 367 nM | 220 nM | 850 nM | 130000 M⁻¹ s⁻¹ | 0.00407 s⁻¹ | – | – |
| CC(C)C[C@@H]1NC(=O)[C@H](CCC(=O)O)NC(=O)[C@@H]2CCCN2C(=O)[C@H](Cc2c[nH]cn2)NC(=O)[C@H](CO)NC(=O)[C@H](C(C)C)NC(=O)[C@H](C)NC(=O)[C@@H]2CSSC[C@H](NC(=O)[C@H](CCC(=O)O)NC(=O)[C@@H]3CCCN3)C(=O)N[C@@H](CSSC[C@@H](C(N)=O)NC1=O)C(=O)N[C@@H]([C@@H](C)O)C(=O)N[C@@H](Cc1c[nH]cn1)C(=O)N1CCC[C@H]1C(=O)N[C@@H](C)C(=O)N2 [Mr1.7[H10A]] (H-PECCTHPACAVSHPELC-NH2; disulfide 3-9, 4-17) | – | – | – | – | – | – | 123 nM | – |
| CC(C)C[C@@H]1NC(=O)[C@H](CCC(=O)O)NC(=O)[C@@H]2CCCN2C(=O)[C@H](Cc2c[nH]cn2)NC(=O)[C@H](CO)NC(=O)[C@H](C(C)C)NC(=O)[C@H](Cc2c[nH]cn2)NC(=O)[C@@H]2CSSC[C@H](NC(=O)[C@H](CCC(=O)O)NC(=O)[C@@H]3CCCN3C(=O)[C@@H](N)CCCNC(=N)N)C(=O)N[C@@H](CSSC[C@@H](C(N)=O)NC1=O)C(=O)N[C@@H]([C@@H](C)O)C(=O)N[C@@H](Cc1c[nH]cn1)C(=O)N1CCC[C@H]1C(=O)N[C@@H](C)C(=O)N2 [RaaMr1.7] (H-RPECCTHPACHVSHPELC-NH2; disulfide 4-10, 5-18; N-terminus assumed) | – | – | – | – | – | – | 41.2 nM | – |
| CC(C)C[C@@H]1NC(=O)[C@H](CCC(=O)O)NC(=O)[C@@H]2CCCN2C(=O)[C@H](Cc2c[nH]cn2)NC(=O)[C@H](CC(N)=O)NC(=O)CNC(=O)[C@H](Cc2c[nH]cn2)NC(=O)[C@@H]2CSSC[C@H](NC(=O)CN)C(=O)N[C@@H](CSSC[C@@H](C(N)=O)NC1=O)C(=O)N[C@@H]([C@@H](C)O)C(=O)N[C@@H](Cc1c[nH]cn1)C(=O)N1CCC[C@H]1C(=O)N[C@@H](C)C(=O)N2 [Mr1.7[E2G,V11G,S12N,Δ1]] (H-GCCTHPACHGNHPELC-NH2; disulfide 2-8, 3-16; N-terminus assumed) | > 10000 nM | 390 nM | > 10000 nM | 125 nM | 208000 M⁻¹ s⁻¹ | 0.00352 s⁻¹ | – | α9α10/α3β2 (rat nAChR α9α10): >2272; α2β4/α3β2 (rat nAChR α2β4): 89; α7/α3β2 (rat nAChR α7): >2272; α3β4/α3β2 (rat nAChR α3β4): 27; 50% recovery from block (rat nAChR α3β2 [2]): 3.3 min; t1/2 (rat nAChR α3β2 [2]): 3.286 (2.842–3.894) min; kobs (rat nAChR α3β2 [2]; SEM): 1.460 ± 0.2516 min⁻¹ |
| CC(C)C[C@@H]1NC(=O)[C@H](CCC(=O)O)NC(=O)[C@@H]2CCCN2C(=O)[C@H](C)NC(=O)[C@H](CO)NC(=O)[C@H](C(C)C)NC(=O)[C@H](Cc2c[nH]cn2)NC(=O)[C@@H]2CSSC[C@H](NC(=O)[C@H](CCC(=O)O)NC(=O)[C@@H]3CCCN3)C(=O)N[C@@H](CSSC[C@@H](C(N)=O)NC1=O)C(=O)N[C@@H]([C@@H](C)O)C(=O)N[C@@H](Cc1c[nH]cn1)C(=O)N1CCC[C@H]1C(=O)N[C@@H](C)C(=O)N2 [Mr1.7[H13A]] (H-PECCTHPACHVSAPELC-NH2; disulfide 3-9, 4-17; N-terminus assumed) | – | – | – | – | – | – | > 10000 nM | – |
| CC(C)C[C@@H]1NC(=O)[C@H](CCC(=O)O)NC(=O)[C@@H]2CCCN2C(=O)[C@H](Cc2c[nH]cn2)NC(=O)[C@H](CO)NC(=O)CNC(=O)[C@H](Cc2c[nH]cn2)NC(=O)[C@@H]2CSSC[C@H](NC(=O)[C@H](CCC(=O)O)NC(=O)[C@@H]3CCCN3)C(=O)N[C@@H](CSSC[C@@H](C(N)=O)NC1=O)C(=O)N[C@@H]([C@@H](C)O)C(=O)N[C@@H](Cc1c[nH]cn1)C(=O)N1CCC[C@H]1C(=O)N[C@@H](C)C(=O)N2 [Mr1.7[V11G]] (H-PECCTHPACHGSHPELC-NH2; disulfide 3-9, 4-17) | – | – | – | – | – | – | 138 nM | – |
| CC(C)C[C@@H]1NC(=O)[C@H](CCC(=O)O)NC(=O)[C@@H]2CCCN2C(=O)[C@H](Cc2c[nH]cn2)NC(=O)[C@H](CC(N)=O)NC(=O)[C@H](C(C)C)NC(=O)[C@H](Cc2c[nH]cn2)NC(=O)[C@@H]2CSSC[C@H](NC(=O)[C@H](C)NC(=O)[C@@H]3CCCN3)C(=O)N[C@@H](CSSC[C@@H](C(N)=O)NC1=O)C(=O)N[C@@H]([C@@H](C)O)C(=O)N[C@@H](Cc1c[nH]cn1)C(=O)N1CCC[C@H]1C(=O)N[C@@H](C)C(=O)N2 [Mr1.7[E2A,S12N]] (H-PACCTHPACHVNHPELC-NH2; disulfide 3-9, 4-17) | > 10000 nM | 3490 nM | 591 nM | 556 nM | 73800 M⁻¹ s⁻¹ | 0.00173 s⁻¹ | – | – |
